# Reference: patent US9101620B2, “Polymorph of 3-(substituteddihydroisoindolinone-2-yl)-2,6-dioxopiperidine, and pharmaceutical compositions thereof” (Nanjing Cavendish Bio-Engineering Technology Co., Ltd., priority 2009, dated 2015)
# Key:
# [1] = Destruction test: impurities in raw materials before destruction (HPLC); format: physicochemical
# Excerpt: The methods of destruction experiment of the Polymorph I of this invention (hereinafter referred to as “Polymorph I”) contrasting with the Polymorph A and B of 3-(4-amino-1-oxo-1,3-dihydro-2H-isoindole-2-yl)-piperidine-2,6-dione prepared by the method in CN 1871003A (hereinafter referred to as “Polymorph A” and “polymorph B”) and results of stability are followed:
# (§1) HPLC conditions and system applicability: octadecylsilane bonded silica as the filler; 0.01 mol/L of potassium dihydrogen phosphate (adjusted to pH 3.5 by phosphoric acid)-methanol-acetonitrile (80:15:5) as the mobile phase; detection wavelength was 240 nm; the number of theoretical plates should be not less than 2000, calculated according to the peak of lenalidomide. The resolution of the peak of 3-(4-amino-1-oxo-1,3-dihydro-2H-isoindole-2-yl)-piperidine-2,6-dione from the peaks of adjacent impurities should meet requirements.
# (§2) Determination method: sample was dissolved in mobile phase to be the solution containing 0.5 mg per 1 mL. 20 μL of such solution was injected into liquid chromatograph and chromatogram was recorded until fourfold the retention time of major component peak. If there were impurities peaks in the chromatogram of sample solution, total impurities and sole impurity were calculated by normalization method on the basis of peak area.
# [2] = Acid destruction (0.1 mol/L HCl), related substances by HPLC; format: physicochemical
# Protocol: Acid destruction: 50 mg of sample weighted accurately was added into measuring flask of 100 mL, and 10 mL 0.1 mol/L HCl solution was added. After standing at room temperature for 1 hour, an equal amount of 0.1 mol/L NaOH solution was added for neutralization. Then the mixture was diluted with mobile phase to scale and shook to be homogeneous, and determined by HPLC.
# as §1, §2
# [3] = 0.1 mol/L HCl, room temperature, 1 hour
smiles,measurement,setting,value
"Nc1cccc2c1CN(C1CCC(=O)NC1=O)C2=O (single isomer, unassigned) [Polymorph I, 3-(4-amino-1-oxo-1,3-dihydro-2H-isoindole-2-yl)-piperidine-2,6-dione]","Major impurity, peak tR5.872-5.948",[1],0.01%
same,"Major impurity, peak tR10.961-11.165",[1],0.03%
same,Total impurities in raw materials before destruction,[1]; HPLC peak area normalization,impurities: 0.04%
same,"Major impurity, peak tR4.717-4.737",[2]; [3],0.20%
same,"Major impurity, peak tR7.367-7.381",[2]; [3],0.41%
same,"Major impurity, peak tR11.067-11.100",[2]; [3],0.01%
same,Total impurities generated by 0.1 mol/L acid destruction for 1 hour,[2]; [3],impurities: 0.62%
same,Chemical stability (in words),[2]; acid condition / 0.1 mol/L diluted HCl solution,better stability
